Experimental data as given in patent US20260070899A1, “N-(2-(4-CYANOTHIAZOLIDIN-3-YL)-2-OXOETHYL)-QUINOLINE-4-CARBOXAMIDES” (AstraZeneca AB, priority 2022, published 2026).
≈ marks a conversion by molar mass, not a printed value.

Legend:
[1] = Metabolic stability in human liver microsomes (HLM); type: in vitro ADME; conditions: n = 1 or average (n = 2-3)
Method: Metabolic stability in HLM was measured as described in J Comput Aided Mol Des 2015, 29, 795.

Rat Hepatocytes (rHep) = experiment: Metabolic stability in rat hepatocytes (rHep); type: in vitro ADME; conditions: n = 1 or geometric mean (n = 2-3)
Method: Metabolic stability in rat hepatocytes was measured as described in J Comput Aided Mol Des 2015, 29, 795.

[2] = Caco-2 AB intrinsic permeability; type: in vitro ADME; conditions: human, A to B intrinsic, n = 1 or average (n = 2), read-out: Caco2 AB Intrinsic Papp
Method: (§1) Caco-2 cell permeability was measured as described in Mol Pharm 2017, 14, 1601.

Kinetic solubility = type: physicochemical; conditions: kinetic from dmso stock, n = 1 or average (n = 2-4)
Method: Kinetic solubility was measured as described in Comput Aided Mol Des 2015, 29, 795.

hFAP (M39-A757) = molecular target: T1, hFAP (M39-A757) (Homo sapiens, UniProt Q12884); experiment: biochemical;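 further: surface plasmon resonance direct binding to hFAP amine-coupled on a sensor chip, rising compound concentrations by single cycle kinetics, Kd from global fit of interaction models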
T1 sequence (Q12884 39-757): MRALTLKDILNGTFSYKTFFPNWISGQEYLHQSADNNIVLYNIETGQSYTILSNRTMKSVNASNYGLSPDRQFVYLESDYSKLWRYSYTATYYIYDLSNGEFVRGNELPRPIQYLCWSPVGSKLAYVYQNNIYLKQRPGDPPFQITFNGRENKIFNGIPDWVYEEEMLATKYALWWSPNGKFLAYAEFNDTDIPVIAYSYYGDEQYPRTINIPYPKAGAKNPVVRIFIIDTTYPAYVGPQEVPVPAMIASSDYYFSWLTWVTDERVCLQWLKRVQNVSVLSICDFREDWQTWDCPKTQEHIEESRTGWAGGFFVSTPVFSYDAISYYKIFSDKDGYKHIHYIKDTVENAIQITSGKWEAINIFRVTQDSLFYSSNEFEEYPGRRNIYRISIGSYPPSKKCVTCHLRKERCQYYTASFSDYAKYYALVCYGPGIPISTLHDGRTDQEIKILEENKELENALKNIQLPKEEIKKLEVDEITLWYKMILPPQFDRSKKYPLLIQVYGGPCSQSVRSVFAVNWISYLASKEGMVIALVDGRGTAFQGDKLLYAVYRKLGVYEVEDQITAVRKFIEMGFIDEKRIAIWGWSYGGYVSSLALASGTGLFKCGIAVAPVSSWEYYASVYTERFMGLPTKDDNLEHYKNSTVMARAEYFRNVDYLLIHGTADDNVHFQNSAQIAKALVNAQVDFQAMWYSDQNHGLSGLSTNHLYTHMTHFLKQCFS
Method: Compounds were tested in a direct binding assay using 8K surface plasmon resonance biosensor (GE Healthcare) at 20° C. Immobilization of hFAP (M39-A757) on a CMD200M sensor chip (Xantec) was performed using standard amine coupling procedure in immobilization buffer (10 mM HEPES, 150 mM NaCl, 0.05% Tween20, pH 7.4). The surface was washed with 10 mM aq NaOH, 1M NaCl before being activated with EDC/NHS (GE Healthcare), followed by immobilization of hFAP (in 10 mM Acetate pH 5.0). Finally, the surface was deactivated by ethanolamine. Immobilization levels of hFAP were around 4000-6000 RU. The reference spot was treated as described, omitting the injection of hFAP. Compound concentration series were injected over the immobilized protein in increasing concentrations (2-500 nM) using single cycle kinetics in running buffer (20 mM TRIS, 150 mM NaCl, 0.05% Tween20, 1% DMSO, pH 7.4). Interaction models were fitted globally to the experimental traces, enabling determination of kon, koff and Kd.

[3] = molecular target: T2, Prolyl endopeptidase, Prolyl Oligopeptidase (hPREP) (Homo sapiens, UniProt P48147); experiment: biochemical
T2 sequence (P48147 1-710): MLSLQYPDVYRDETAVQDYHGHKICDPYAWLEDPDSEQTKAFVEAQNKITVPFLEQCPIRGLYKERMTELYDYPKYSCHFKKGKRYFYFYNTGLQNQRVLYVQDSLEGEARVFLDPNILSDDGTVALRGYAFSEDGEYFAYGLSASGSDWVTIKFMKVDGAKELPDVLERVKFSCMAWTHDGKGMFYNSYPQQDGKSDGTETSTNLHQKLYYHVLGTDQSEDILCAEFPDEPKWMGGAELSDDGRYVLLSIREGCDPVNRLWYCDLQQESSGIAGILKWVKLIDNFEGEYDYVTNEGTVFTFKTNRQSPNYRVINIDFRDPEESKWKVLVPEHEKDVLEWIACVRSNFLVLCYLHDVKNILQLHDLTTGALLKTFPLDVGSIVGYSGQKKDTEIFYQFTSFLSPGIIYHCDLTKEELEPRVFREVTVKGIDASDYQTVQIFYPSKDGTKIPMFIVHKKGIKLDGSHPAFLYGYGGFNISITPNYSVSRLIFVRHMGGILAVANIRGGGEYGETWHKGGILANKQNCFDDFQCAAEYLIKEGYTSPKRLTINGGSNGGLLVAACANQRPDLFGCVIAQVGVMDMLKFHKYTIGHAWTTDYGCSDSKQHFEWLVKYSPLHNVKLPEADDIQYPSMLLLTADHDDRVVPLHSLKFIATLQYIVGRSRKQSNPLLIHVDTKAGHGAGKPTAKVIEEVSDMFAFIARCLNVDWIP
Method: Compounds were tested in a biochemical inhibition assay using Prolyl endopeptidase, Prolyl Oligopeptidase (hPREP) enzyme at 0.6 nM FAC (R&D Systems, 4308-SE) and the substrate Z-Gly-Pro-amino-methylcoumarin (Bachem, I-1145) at 50 μM FAC. 384 Low volume black plates (Greiner #784076) were used. […] Plates were incubated for 15 min at rt in dark. 4 μL, 100 μM substrate solution (25 mM Tris HCl, 250 mM NaCl, 0.01% Triton X-100, 5 mM Glutathione, pH 7.5) was added to each well. Plates were centrifuged at 1000 rpm and incubated for 20 min at rt in dark. The plates were read on a PHERAstar® reader with excitation 340 nm and emission 460 nm. Data were analyzed in Genedata Screener®. IC50 values were determined by plotting % inhibition versus log compound concentration and using a one site dose response model.

[4] = molecular target: T3, human dipeptidylpeptidase 7 (hDPP7) (Homo sapiens, UniProt Q9UHL4); experiment: hDPP7 inhibition assay; type: biochemical; conditions: hDPP7 15 nM, Ala-Pro-amino-methylcoumarin 5 μM; n = 1
T3 construct: purchased BPS Bioscience 80070
Method: Compounds were tested in a biochemical inhibition assay using human dipeptidylpeptidase 7 (hDPP7) enzyme at 15 nM FAC (BPS Bioscience, #80070) and the substrate Ala-Pro-amino-methylcoumarin (BPS Bioscience, #80305) at 5 μM FAC. The enzymatic reactions were conducted in duplicate at rt for 30 min in 50 μL DPP assay buffer (BPS Bioscience, #80300). Compound solutions (in DMSO) at 10 CR, 3 fold dilution series were prepared in assay buffer ten-fold higher than the final concentration, and 5 μL of the dilution was added to a 50 μL reaction so that the highest compound concentration was 100 μM FAC and the concentration of DMSO was 1% in all wells. The plates were read on a Tecan Infinite M1000 microplate reader with excitation 340 nm and emission 460 nm. Data were analyzed in Graph Pad Prism. […] Raw data signals were normalized using 1% DMSO as 0% control and no enzyme as 100% inhibitor control.

[5] = molecular target: T4, human dipeptidylpeptidase 8 (hDPP8) (Homo sapiens, UniProt Q6V1X1); experiment: hDPP8 inhibition assay; type: biochemical; conditions: hDPP8 1.5 nM, Ala-Pro-amino-methylcoumarin 5 μM; n = 1
T4 construct: purchased BPS Bioscience 80080
Method: (§2) Compounds were tested in a biochemical inhibition assay using human dipeptidylpeptidase 8 (hDPP8) enzyme at 1.5 nM FAC (BPS Bioscience, #80080) and the substrate Ala-Pro-amino-methylcoumarin (BPS Bioscience #80305) at 5 μM FAC. The enzymatic reactions were conducted in duplicate at rt for 30 min in 50 μL DPP assay buffer (BPS Bioscience, #80300). Compound solutions (in DMSO) at 10 CR, 3 fold dilution series were prepared in assay buffer ten-fold higher than the final concentration, and 5 μL of the dilution was added to a 50 μL reaction so that the highest compound concentration was 100 μM FAC and the concentration of DMSO was 1% in all wells. The plates were read on a Tecan Infinite M1000 microplate reader with excitation 340 nm and emission 460 nm. Data were analyzed in Graph Pad Prism. […] Raw data signals were normalized using 1% DMSO as 0% control and no enzyme as 100% inhibitor control.

[6] = molecular target: T5, human dipeptidylpeptidase 9 (hDPP9) (Homo sapiens, UniProt Q86TI2); experiment: hDPP9 inhibition assay; type: biochemical; conditions: hDPP9 0.4 nM, Ala-Pro-amino-methylcoumarin 5 μM; n = 1
T5 construct: purchased BPS Bioscience 80090
Method: as §2, with “9 (hDPP9)” for “8 (hDPP8)”, “0.4” for “1.5”, “#80090)” for “#80080)”

[7] = Caco-2 bidirectional (ABBA) permeability; type: in vitro ADME; conditions: human
Method: as §1

T5 sequence (Q86TI2 whole entry): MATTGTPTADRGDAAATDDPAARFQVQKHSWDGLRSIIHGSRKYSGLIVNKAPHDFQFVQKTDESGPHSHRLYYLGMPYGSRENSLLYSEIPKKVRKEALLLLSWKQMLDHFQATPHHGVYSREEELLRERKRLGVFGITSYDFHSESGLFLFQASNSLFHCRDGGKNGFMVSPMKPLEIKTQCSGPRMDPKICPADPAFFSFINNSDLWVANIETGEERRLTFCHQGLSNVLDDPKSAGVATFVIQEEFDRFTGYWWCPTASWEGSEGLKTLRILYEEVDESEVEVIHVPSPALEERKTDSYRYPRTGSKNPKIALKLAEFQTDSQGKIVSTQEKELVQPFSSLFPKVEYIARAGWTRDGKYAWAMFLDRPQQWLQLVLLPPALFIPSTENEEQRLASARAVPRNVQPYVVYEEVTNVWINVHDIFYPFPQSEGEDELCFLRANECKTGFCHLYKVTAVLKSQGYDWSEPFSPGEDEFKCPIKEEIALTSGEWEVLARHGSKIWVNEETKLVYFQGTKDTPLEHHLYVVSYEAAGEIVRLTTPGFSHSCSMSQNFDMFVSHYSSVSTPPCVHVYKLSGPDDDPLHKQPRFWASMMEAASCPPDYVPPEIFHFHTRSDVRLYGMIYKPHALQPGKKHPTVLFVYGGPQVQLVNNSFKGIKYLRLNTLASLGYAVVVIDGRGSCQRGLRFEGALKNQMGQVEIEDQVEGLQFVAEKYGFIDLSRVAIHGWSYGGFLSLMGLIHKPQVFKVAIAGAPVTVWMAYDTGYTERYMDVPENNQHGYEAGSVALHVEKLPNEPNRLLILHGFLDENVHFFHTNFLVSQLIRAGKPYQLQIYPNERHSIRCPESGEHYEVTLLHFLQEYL
T4 sequence (Q6V1X1 whole entry): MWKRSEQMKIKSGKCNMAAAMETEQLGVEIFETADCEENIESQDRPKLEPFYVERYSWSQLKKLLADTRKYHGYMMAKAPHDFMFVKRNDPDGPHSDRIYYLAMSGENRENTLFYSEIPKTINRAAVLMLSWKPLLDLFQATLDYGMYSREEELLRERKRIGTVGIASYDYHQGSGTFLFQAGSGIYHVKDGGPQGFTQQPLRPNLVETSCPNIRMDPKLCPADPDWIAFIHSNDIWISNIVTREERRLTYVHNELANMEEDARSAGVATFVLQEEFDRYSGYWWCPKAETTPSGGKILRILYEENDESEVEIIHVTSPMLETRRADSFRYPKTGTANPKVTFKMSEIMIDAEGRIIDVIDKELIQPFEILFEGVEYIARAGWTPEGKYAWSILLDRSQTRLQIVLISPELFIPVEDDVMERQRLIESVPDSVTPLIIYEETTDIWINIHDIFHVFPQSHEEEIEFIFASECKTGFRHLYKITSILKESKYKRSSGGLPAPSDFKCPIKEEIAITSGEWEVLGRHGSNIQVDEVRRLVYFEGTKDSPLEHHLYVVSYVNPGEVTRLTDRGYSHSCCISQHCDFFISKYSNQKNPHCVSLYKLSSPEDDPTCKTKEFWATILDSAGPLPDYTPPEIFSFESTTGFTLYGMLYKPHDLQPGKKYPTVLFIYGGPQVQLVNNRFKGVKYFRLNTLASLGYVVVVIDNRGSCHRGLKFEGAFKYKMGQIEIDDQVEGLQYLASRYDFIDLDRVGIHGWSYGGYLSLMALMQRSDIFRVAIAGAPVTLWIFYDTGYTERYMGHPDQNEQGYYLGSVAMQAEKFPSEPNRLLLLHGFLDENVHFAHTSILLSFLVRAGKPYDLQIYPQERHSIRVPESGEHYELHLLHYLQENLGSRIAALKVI

| SMILES | microsomal CLint [1] [µL/min/mg] | rHeps CLint (Rat Hepatocytes (rHep)) [μL/min/1E6] | Papp A→B [2] [×10⁻⁶ cm/s] | solubility (Kinetic solubility) [µM] | Kd (hFAP (M39-A757)) [nM] | IC50 [3] [nM] | IC50 [4] [nM] | IC50 [5] [nM] | IC50 [6] [nM] | Papp A→B ([7]; A to B, n = 1 or average (n = 2), read-out: Caco2 Bidirectional (ABBA) A to B Papp) [×10⁻⁶ cm/s] | Papp B→A ([7]; B to A, n = 1 or average (n = 2), read-out: Caco2 Bidirectional (ABBA) B to A Papp) [×10⁻⁶ cm/s] | efflux ratio ([7]; read-out: Caco2 Bidirectional (ABBA) Efflux Ratio) |
| --- | --- | --- | --- | --- | --- | --- | --- | --- | --- | --- | --- | --- |
| COCCOc1ccc2nccc(C(=O)NCC(=O)N3CSC[C@H]3C#N)c2c1 [Example 4, (R)—N-(2-(4-Cyanothiazolidin-3-yl)-2-oxoethyl)-6-(2-methoxyethoxy)quinoline-4-carboxamide] | < 3 | <1 | 10 | > 1000 | 0.057 | 570 | – | – | – | – | – | – |
| N#C[C@@H]1CSCN1C(=O)CNC(=O)c1ccnc2ccc(OC3CCOCC3)cc12 [Example 6, (R)—N-(2-(4-Cyanothiazolidin-3-yl)-2-oxoethyl)-6-((tetrahydro-2H-pyran-4-yl)oxy)quinoline-4-carboxamide] | – | – | – | – | – | 1200 | > 100000 | 6400 | 2900 | – | – | – |
| N#C[C@@H]1CSCN1C(=O)CNC(=O)c1ccnc2ccc(C3(C#N)CCOCC3)cc12 [Example 59, (R)-6-(4-Cyanotetrahydro-2H-pyran-4-yl)-N-(2-(4-cyanothiazolidin-3-yl)-2-oxoethyl)quinoline-4-carboxamide] | 30 | 20 | – | 480 (≈ 209 µg/mL) | – | 430 | – | – | – | 0.24 | 21 | 90 |
